Assay results as given in the CheMixHub ionic liquid set.

Experiment: xn = mol fraction of the nth substance listed
Conditions: 101 kPa

CCCCCCCCCCCCCC[n+]1ccccc1.O=C([O-])C(O)c1ccccc1 + C[C@H](N)C(=O)O + O
electrical conductivity [S/m]
Conditions	293.15 K	298.15 K	303.15 K	308.15 K	313.15 K
x1 = 5.26e-06, x2 = 0.001799	0.00177	0.00202	0.00228	0.00255	0.00285
x1 = 6.85e-06, x2 = 0	0.00248	0.00278	0.00309	0.0034	0.0037
x1 = 7.23e-06, x2 = 0.0009002	0.00232	0.00263	0.00296	0.00329	0.0036
x1 = 1.107e-05, x2 = 0.001799	0.00339	0.00385	0.0043	0.00479	0.0053
x1 = 1.32e-05, x2 = 0.0009002	0.00408	0.00462	0.00517	0.0057	0.0063
x1 = 1.424e-05, x2 = 0	0.00472	0.00529	0.00587	0.0065	0.0071
x1 = 1.688e-05, x2 = 0.001799	0.00492	0.00558	0.00625	0.007	0.0077
x1 = 1.79e-05, x2 = 0.0009002	0.00545	0.00618	0.0069	0.0077	0.0084
x1 = 2.126e-05, x2 = 0	0.00671	0.0076	0.0084	0.0093	0.0101
x1 = 2.178e-05, x2 = 0.001799	0.00627	0.00713	0.008	0.0088	0.0098
x1 = 2.206e-05, x2 = 0.0009002	0.0066	0.0075	0.0084	0.0093	0.0102
x1 = 2.64e-05, x2 = 0.0009002	0.00784	0.0089	0.0099	0.011	0.0121
x1 = 2.686e-05, x2 = 0.001799	0.00759	0.0086	0.0097	0.0107	0.0118
x1 = 2.811e-05, x2 = 0	0.0086	0.0097	0.0108	0.0122	0.0131
x1 = 3.092e-05, x2 = 0.0009002	0.0091	0.0103	0.0115	0.0128	0.014
x1 = 3.158e-05, x2 = 0.001799	0.0088	0.01	0.0112	0.0124	0.0137
x1 = 3.46e-05, x2 = 0	0.0103	0.0116	0.0129	0.0145	0.0157
x1 = 3.653e-05, x2 = 0.0009002	0.0105	0.0119	0.0133	0.0148	0.0163
x1 = 3.702e-05, x2 = 0.001799	0.0101	0.0114	0.0128	0.0143	0.0158
x1 = 4.108e-05, x2 = 0	0.0117	0.0131	0.0146	0.0161	0.0179
x1 = 4.376e-05, x2 = 0.0009001	0.0119	0.0135	0.015	0.0168	0.0186
x1 = 4.392e-05, x2 = 0.001799	0.0113	0.0128	0.0143	0.016	0.0178
x1 = 4.811e-05, x2 = 0	0.0129	0.0144	0.0161	0.0179	0.0198
x1 = 5.045e-05, x2 = 0.0009001	0.0129	0.0146	0.0163	0.0184	0.0203
x1 = 5.136e-05, x2 = 0.001799	0.0124	0.0139	0.0156	0.0175	0.0195
x1 = 5.388e-05, x2 = 0	0.0137	0.0154	0.0172	0.0191	0.0211
x1 = 5.768e-05, x2 = 0.0009001	0.014	0.0158	0.0177	0.0198	0.022
x1 = 5.861e-05, x2 = 0.001799	0.0134	0.0151	0.0169	0.019	0.0211
x1 = 5.982e-05, x2 = 0	0.0145	0.0163	0.0182	0.0202	0.0224
x1 = 6.383e-05, x2 = 0.0009001	0.0148	0.0168	0.0188	0.021	0.0233
x1 = 6.559e-05, x2 = 0	0.0153	0.0172	0.0192	0.0213	0.0236
x1 = 6.569e-05, x2 = 0.001799	0.0143	0.0161	0.0181	0.0201	0.0224
x1 = 6.998e-05, x2 = 0.0009001	0.0157	0.0177	0.0198	0.0222	0.0246
x1 = 7.081e-05, x2 = 0	0.016	0.018	0.02	0.0223	0.0246
x1 = 7.222e-05, x2 = 0.001799	0.0151	0.0171	0.0192	0.0214	0.0236
x1 = 7.595e-05, x2 = 0.0009001	0.0165	0.0187	0.0209	0.0234	0.026
x1 = 7.604e-05, x2 = 0	0.0167	0.0187	0.0209	0.0232	0.0258
x1 = 7.839e-05, x2 = 0.001799	0.0159	0.018	0.0201	0.0225	0.0251
x1 = 8.072e-05, x2 = 0	0.0173	0.0194	0.0217	0.0241	0.0266
